# ChEMBL document CHEMBL3885881, “DrugMatrix”
# Species: Rattus norvegicus
# Assay: DrugMatrix - Regimen: Daily Repeat
# Type: toxicity, organism-based, Sprague-Dawley
# Set-up: regimen Daily Repeat, gender Male, age 6-8 weeks
# Conditions: in vivo, sc, route subcutaneous, […]; for ABSOLUTE BASOPHIL / ABSOLUTE EOSINOPHIL / ABSOLUTE LYMPHOCYTE / ABSOLUTE MONOCYTE / ABSOLUTE SEGMENTED NEUTROPHIL / BASOPHIL / EOSINOPHIL / ERYTHROCYTE COUNT / HEMATOCRIT / HEMOGLOBIN / LEUKOCYTE COUNT / LYMPHOCYTE / MEAN CORPUSCULAR HEMOGLOBIN / MEAN CORPUSCULAR HEMOGLOBIN CONCENTRATION / MEAN CORPUSCULAR VOLUME / MONOCYTE / NEUTROPHIL / NUCLEATED RED BLOOD CELLS / PLATELET COUNT: tissue Blood; for ALANINE AMINOTRANSFERASE / ALBUMIN / ALKALINE PHOSPHATASE / ASPARTATE AMINOTRANSFERASE / BLOOD UREA NITROGEN / CARBON DIOXIDE / CHLORIDE / CHOLESTEROL / CREATINE PHOSPHOKINASE / CREATININE / GLUCOSE / LACTATE DEHYDROGENASE / LIPASE / PHOSPHORUS / POTASSIUM / SODIUM / TOTAL BILIRUBIN / TOTAL PROTEIN / URIC ACID: tissue Plasma
# [1] = 0 mg/kg, 72 h, dose level Control, time 3 day
# [2] = 0 mg/kg, 120 h, dose level Control, time 5 day
# [3] = 22 mg/kg, 72 h, dose level Low, time 3 day
# [4] = 22 mg/kg, 120 h, dose level Low, time 5 day
structure (smiles),measurement,setting,value
O=C(O)c1ccccc1O [SALICYLIC ACID],ABSOLUTE BASOPHIL,[1],0 CELLS/uL
same,ABSOLUTE EOSINOPHIL,[1],0 CELLS/uL
same,ABSOLUTE LYMPHOCYTE,[1],10887 CELLS/uL
same,ABSOLUTE MONOCYTE,[1],56 CELLS/uL
same,ABSOLUTE SEGMENTED NEUTROPHIL,[1],1057 CELLS/uL
same,BASOPHIL,[1],0%
same,EOSINOPHIL,[1],0%
same,ERYTHROCYTE COUNT,[1],5.31 x10E6/uL
same,HEMATOCRIT,[1],33.78%
same,HEMOGLOBIN,[1],13.4 G/DL
same,LEUKOCYTE COUNT,[1],12 x10E3/uL
same,LYMPHOCYTE,[1],91.17%
same,MEAN CORPUSCULAR HEMOGLOBIN,[1],25.25 pg
same,MEAN CORPUSCULAR HEMOGLOBIN CONCENTRATION,[1],39.65 G/DL
same,MEAN CORPUSCULAR VOLUME,[1],63.65 fL
same,MONOCYTE,[1],0.5%
same,NEUTROPHIL,[1],8.33%
same,NUCLEATED RED BLOOD CELLS,[1],0 /100WBC
same,PLATELET COUNT,[1],1142 x10E3/uL
same,ALANINE AMINOTRANSFERASE,[1],57.17 u/L
same,ALBUMIN,[1],4.28 G/DL
same,ALKALINE PHOSPHATASE,[1],425.83 u/L
same,ASPARTATE AMINOTRANSFERASE,[1],93.83 u/L
same,BLOOD UREA NITROGEN,[1],14.17 mg/dL
same,CARBON DIOXIDE,[1],33.5 mmol/L
same,CHLORIDE,[1],100 MEQ/L
same,CHOLESTEROL,[1],70.33 mg/dL
same,CREATINE PHOSPHOKINASE,[1],438.67 u/L
same,CREATININE,[1],0.19 mg/dL
same,GLUCOSE,[1],138.5 mg/dL
same,LACTATE DEHYDROGENASE,[1],190.17 u/L
same,LIPASE,[1],9.83 u/L
same,PHOSPHORUS,[1],11.05 mg/dL
same,POTASSIUM,[1],6.59 MEQ/L
same,SODIUM,[1],143.58 MEQ/L
same,TOTAL BILIRUBIN,[1],0.22 mg/dL
same,TOTAL PROTEIN,[1],6.15 G/DL
same,URIC ACID,[1],1.3 mg/dL
same,ABSOLUTE BASOPHIL,[2],0 CELLS/uL
same,ABSOLUTE EOSINOPHIL,[2],91.17 CELLS/uL
same,ABSOLUTE LYMPHOCYTE,[2],11847.67 CELLS/uL
same,ABSOLUTE MONOCYTE,[2],172.83 CELLS/uL
same,ABSOLUTE SEGMENTED NEUTROPHIL,[2],1105 CELLS/uL
same,BASOPHIL,[2],0%
same,EOSINOPHIL,[2],0.67%
same,ERYTHROCYTE COUNT,[2],5.35 x10E6/uL
same,HEMATOCRIT,[2],33.65%
same,HEMOGLOBIN,[2],13.42 G/DL
same,LEUKOCYTE COUNT,[2],13.22 x10E3/uL
same,LYMPHOCYTE,[2],89.83%
same,MEAN CORPUSCULAR HEMOGLOBIN,[2],25.12 pg
same,MEAN CORPUSCULAR HEMOGLOBIN CONCENTRATION,[2],39.9 G/DL
same,MEAN CORPUSCULAR VOLUME,[2],63 fL
same,MONOCYTE,[2],1.33%
same,NEUTROPHIL,[2],8.17%
same,NUCLEATED RED BLOOD CELLS,[2],0 /100WBC
same,PLATELET COUNT,[2],1347.83 x10E3/uL
same,ALANINE AMINOTRANSFERASE,[2],50 u/L
same,ALBUMIN,[2],4.1 G/DL
same,ALKALINE PHOSPHATASE,[2],329.17 u/L
same,ASPARTATE AMINOTRANSFERASE,[2],77.17 u/L
same,BLOOD UREA NITROGEN,[2],16.83 mg/dL
same,CARBON DIOXIDE,[2],34.83 mmol/L
same,CHLORIDE,[2],99.83 MEQ/L
same,CHOLESTEROL,[2],75.67 mg/dL
same,CREATINE PHOSPHOKINASE,[2],295.83 u/L
same,CREATININE,[2],0.18 mg/dL
same,GLUCOSE,[2],156.33 mg/dL
same,LACTATE DEHYDROGENASE,[2],166.83 u/L
same,LIPASE,[2],9.83 u/L
same,PHOSPHORUS,[2],12.18 mg/dL
same,POTASSIUM,[2],6.69 MEQ/L
same,SODIUM,[2],143.97 MEQ/L
same,TOTAL BILIRUBIN,[2],0.22 mg/dL
same,TOTAL PROTEIN,[2],6.05 G/DL
same,URIC ACID,[2],1.6 mg/dL
same,ABSOLUTE BASOPHIL,[3],0 CELLS/uL
same,ABSOLUTE EOSINOPHIL,[3],26.67 CELLS/uL
same,ABSOLUTE LYMPHOCYTE,[3],6989.67 CELLS/uL
same,ABSOLUTE MONOCYTE,[3],0 CELLS/uL
same,ABSOLUTE SEGMENTED NEUTROPHIL,[3],550.33 CELLS/uL
same,BASOPHIL,[3],0%
same,EOSINOPHIL,[3],0.33%
same,ERYTHROCYTE COUNT,[3],5.05 x10E6/uL
same,HEMATOCRIT,[3],33.17%
same,HEMOGLOBIN,[3],13.07 G/DL
same,LEUKOCYTE COUNT,[3],7.57 x10E3/uL
same,LYMPHOCYTE,[3],92.33%
same,MEAN CORPUSCULAR HEMOGLOBIN,[3],25.9 pg
same,MEAN CORPUSCULAR HEMOGLOBIN CONCENTRATION,[3],39.43 G/DL
same,MEAN CORPUSCULAR VOLUME,[3],65.6 fL
same,MONOCYTE,[3],0%
same,NEUTROPHIL,[3],7.33%
same,NUCLEATED RED BLOOD CELLS,[3],0 /100WBC
same,PLATELET COUNT,[3],1158.33 x10E3/uL
same,ALANINE AMINOTRANSFERASE,[3],58.33 u/L
same,ALBUMIN,[3],4.43 G/DL
same,ALKALINE PHOSPHATASE,[3],511.33 u/L
same,ASPARTATE AMINOTRANSFERASE,[3],103 u/L
same,BLOOD UREA NITROGEN,[3],13.33 mg/dL
same,CARBON DIOXIDE,[3],32 mmol/L
same,CHLORIDE,[3],102 MEQ/L
same,CHOLESTEROL,[3],71 mg/dL
same,CREATINE PHOSPHOKINASE,[3],208.67 u/L
same,CREATININE,[3],0.19 mg/dL
same,GLUCOSE,[3],141.33 mg/dL
same,LACTATE DEHYDROGENASE,[3],161.67 u/L
same,LIPASE,[3],10 u/L
same,PHOSPHORUS,[3],12.97 mg/dL
same,POTASSIUM,[3],6.87 MEQ/L
same,SODIUM,[3],150.3 MEQ/L
same,TOTAL BILIRUBIN,[3],0.2 mg/dL
same,TOTAL PROTEIN,[3],6.27 G/DL
same,URIC ACID,[3],0.83 mg/dL
same,ABSOLUTE BASOPHIL,[4],0 CELLS/uL
same,ABSOLUTE EOSINOPHIL,[4],207.33 CELLS/uL
same,ABSOLUTE LYMPHOCYTE,[4],12679.33 CELLS/uL
same,ABSOLUTE MONOCYTE,[4],80 CELLS/uL
same,ABSOLUTE SEGMENTED NEUTROPHIL,[4],1400 CELLS/uL
same,BASOPHIL,[4],0%
same,EOSINOPHIL,[4],1.33%
same,ERYTHROCYTE COUNT,[4],5.41 x10E6/uL
same,HEMATOCRIT,[4],34.5%
same,HEMOGLOBIN,[4],13.87 G/DL
same,LEUKOCYTE COUNT,[4],14.37 x10E3/uL
same,LYMPHOCYTE,[4],88%
same,MEAN CORPUSCULAR HEMOGLOBIN,[4],25.6 pg
same,MEAN CORPUSCULAR HEMOGLOBIN CONCENTRATION,[4],40.23 G/DL
same,MEAN CORPUSCULAR VOLUME,[4],63.73 fL
same,MONOCYTE,[4],0.67%
same,NEUTROPHIL,[4],10%
same,NUCLEATED RED BLOOD CELLS,[4],0 /100WBC
same,PLATELET COUNT,[4],1310 x10E3/uL
same,ALANINE AMINOTRANSFERASE,[4],52.67 u/L
same,ALBUMIN,[4],4.17 G/DL
same,ALKALINE PHOSPHATASE,[4],362.33 u/L
same,ASPARTATE AMINOTRANSFERASE,[4],87.67 u/L
same,BLOOD UREA NITROGEN,[4],16.33 mg/dL
same,CARBON DIOXIDE,[4],30.33 mmol/L
same,CHLORIDE,[4],105.67 MEQ/L
same,CHOLESTEROL,[4],78.33 mg/dL
same,CREATINE PHOSPHOKINASE,[4],263.33 u/L
same,CREATININE,[4],0.18 mg/dL
same,GLUCOSE,[4],153.33 mg/dL
same,LACTATE DEHYDROGENASE,[4],272.67 u/L
same,LIPASE,[4],9 u/L
same,PHOSPHORUS,[4],13.37 mg/dL
same,POTASSIUM,[4],7.11 MEQ/L
same,SODIUM,[4],149.4 MEQ/L
same,TOTAL BILIRUBIN,[4],0.2 mg/dL
same,TOTAL PROTEIN,[4],6.07 G/DL
same,URIC ACID,[4],1.5 mg/dL
